Structures are written as SMILES.

In the assay the target is T1, GPR35 receptor (Homo sapiens, UniProt Q9HC97).
T1 construct: expressed in transfected cells
The experiment in a line: PathHunter β-Arrestin assay, activation of GPR35 expressed in cultured cells. The assay is classed as cell-based. To be noted: for EC50: highest concentration tested 10 mM, duplicate; for activation of GPR35: up to 10 mM. The source says:
Six human milk oligosaccharides (LNnT, LNT, 2′-FL, DFL, 6′-SL and 3′-SL) are screened for their ability to activate the GPR35 receptor in the PathHunter β-Arresin assay. This assay monitors the activation of GPR35 expressed in cultured cells, using Enzyme Fragment Complementation with β-galactosidase (β-Gal) as the functional reporter. […] EA is fused to β-Arrestin and PK is fused to GPR35. When the GPR35 is activated and β-Arrestin is recruited to the receptor, PK and EA complementation occurs, restoring β-Gal activity, which is measured using chemiluminescent Detection Reagents.
The GPR35 cell line is expanded from frozen stocks and cultured according to standard procedures. Cells are seeded in a total volume of 20 μl into white walled, 384-well microplates and incubated at 37° C. for the appropriate time prior to testing. All testing is done in duplicate. The HMO samples are held in the form of concentrated stocks in Phosphate Buffered saline (PBS). A 5× dilution compound working intermediate is prepared in PBS. Five μl of the sample is added to the cells and incubated at room temperature for 3 to 5 hours. The assay signal is generated through a single addition of 12.5 μl (50 v/v %) of PathHunter Detection reagent cocktail, followed by one-hour incubation at room temperature. Microplates are read following signal generation with a PerkinElmer Envision™ instrument for chemiluminescent signal detection. Zaprinast (which is known to be an activator of GPR35) is used as positive control. Dose-response is generated by iterative 3× dilutions of the highest concentration tested (10 mM).

T1 sequence (Q9HC97 whole entry): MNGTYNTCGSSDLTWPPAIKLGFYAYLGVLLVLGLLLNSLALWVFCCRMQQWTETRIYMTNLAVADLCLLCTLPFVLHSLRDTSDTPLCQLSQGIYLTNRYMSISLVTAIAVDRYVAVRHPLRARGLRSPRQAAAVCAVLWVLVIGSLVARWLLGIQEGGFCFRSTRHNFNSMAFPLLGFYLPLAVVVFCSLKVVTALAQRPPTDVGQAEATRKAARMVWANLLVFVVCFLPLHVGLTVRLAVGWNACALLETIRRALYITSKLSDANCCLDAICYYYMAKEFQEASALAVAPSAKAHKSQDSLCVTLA
T1 sequence (P32121 whole entry partner): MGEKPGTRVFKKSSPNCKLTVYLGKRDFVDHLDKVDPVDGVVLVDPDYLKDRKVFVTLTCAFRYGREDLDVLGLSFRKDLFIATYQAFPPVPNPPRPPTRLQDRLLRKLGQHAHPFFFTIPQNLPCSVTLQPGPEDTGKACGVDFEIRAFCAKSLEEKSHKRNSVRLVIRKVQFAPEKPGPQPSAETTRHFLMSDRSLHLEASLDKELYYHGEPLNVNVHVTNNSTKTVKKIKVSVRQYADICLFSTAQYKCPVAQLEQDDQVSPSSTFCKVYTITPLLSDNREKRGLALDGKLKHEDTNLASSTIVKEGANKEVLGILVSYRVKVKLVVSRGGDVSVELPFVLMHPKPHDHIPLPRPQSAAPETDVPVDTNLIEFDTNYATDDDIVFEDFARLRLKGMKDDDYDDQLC

The EC50 is the concentration giving half of the maximal effect. Higher therefore signals a less potent agent. The molecule `CC(=O)N[C@H]1[C@H](O[C@H]2[C@@H](O)[C@@H](CO)O[C@@H](O[C@H]3[C@H](O)[C@@H](O)C(O)O[C@@H]3CO)[C@@H]2O)O[C@H](CO)[C@@H](O)[C@@H]1O[C@@H]1O[C@H](CO)[C@H](O)[C@H](O)[C@H]1O` (some centres unmarked) [LNT, lacto-N-tetraose] displayed an EC50 of 4.5 mM.

`CC(=O)N[C@H]1[C@H]([C@H](O)[C@H](O)CO)O[C@@](OC[C@H]2O[C@@H](O[C@H]3[C@H](O)[C@@H](O)[C@H](O)O[C@@H]3CO)[C@H](O)[C@@H](O)[C@H]2O)(C(=O)O)C[C@@H]1O` [6′-SL, 6′-sialyllactose] showed an EC50 of 6.5 mM.

For the molecule `C[C@@H]1O[C@@H](O[C@H]2[C@H](O[C@H]3[C@H](O[C@@H]4O[C@@H](C)[C@@H](O)[C@@H](O)[C@@H]4O)[C@@H](O)C(O)O[C@@H]3CO)O[C@H](CO)[C@H](O)[C@@H]2O)[C@@H](O)[C@H](O)[C@@H]1O` (some centres unmarked) [DFL, difucosyllactose], the “activation of GPR35” value is listed as “No activation”.

Regarding `CC(=O)N[C@H]1[C@H](O[C@H]2[C@@H](O)[C@@H](CO)O[C@@H](O[C@H]3[C@H](O)[C@@H](O)C(O)O[C@@H]3CO)[C@@H]2O)O[C@H](CO)[C@@H](O[C@@H]2O[C@H](CO)[C@H](O)[C@H](O)[C@H]2O)[C@@H]1O` (mixture of isomers) [LNnT, lacto-N-neotetraose], the “activation of GPR35” value is “No activation”.

For the molecule `CC(=O)N[C@H]1[C@H]([C@H](O)[C@H](O)CO)O[C@@](O[C@H]2[C@@H](O)[C@@H](CO)O[C@@H](O[C@H]3[C@H](O)[C@@H](O)C(O)O[C@@H]3CO)[C@@H]2O)(C(=O)O)C[C@@H]1O` (some centres unmarked) [3′-SL, 3′-sialyllactose], the “activation of GPR35” value is “No activation”.

The values are drawn from patent US11304966B2, “Composition comprising HMOs for preventing or reducing nociception” (Glycom A/S, priority 2017, dated 2022).
